# pIC50: −log10 of the molar value.
# Molecular target: T1, MAGL protein (Homo sapiens, UniProt Q99685)
# T1 sequence (Q99685 1-303): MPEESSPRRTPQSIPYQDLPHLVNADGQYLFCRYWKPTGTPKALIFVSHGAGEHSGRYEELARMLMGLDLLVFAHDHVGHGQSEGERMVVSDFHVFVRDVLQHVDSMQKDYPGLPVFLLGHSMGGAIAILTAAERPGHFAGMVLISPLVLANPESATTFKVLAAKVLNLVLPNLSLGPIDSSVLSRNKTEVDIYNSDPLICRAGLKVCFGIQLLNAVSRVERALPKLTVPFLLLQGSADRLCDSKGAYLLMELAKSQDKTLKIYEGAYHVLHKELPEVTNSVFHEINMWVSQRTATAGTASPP
# Assay: 2-AG assay: MAGL inhibitory activity by hydrolysis of 2-arachidonoylglycerol to arachidonic acid, followed by mass spectrometry
# Type: biochemical
# Conditions: 8 μM 2-arachidonoylglycerol, 15 min preincubation, 30 min reaction at RT, RapidFire MS readout
# In short: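 Activity was measured by RapidFire SPE–triple-quad MS as the ratio of arachidonic acid to d8-arachidonic acid after 2-AG hydrolysis (8 μM substrate, 30 min, RT, acetonitrile quench). Compounds, tested from 12.5 μM down to […], were first preincubated 15 min with MAGL in TRIS/EDTA/Tween-20 buffer containing 2.5% DMSO.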
row,SMILES,pIC50
1,"CS(=O)(=O)c1ccccc1-c1ccc(C2CN(C(=O)N3CC4(CC(c5nc(C6CC6)n[nH]5)C4)C3)C2)cc1 [Example 516, [6-(3-cyclopropyl-1H-1,2,4-triazol-5-yl)-2-azaspiro[3.3]heptan-2-yl]-[3-[4-(2-mesylphenyl)phenyl]azetidin-1-yl]methanone]",9.77
2,CS(=O)(=O)c1ccc(COC2CN(C(=O)N3CC4(CC(c5nnc(C6CC6)[nH]5)C4)C3)C2)cc1 [compound 333],6.80
3,O=C(N1CC(c2ccc(C3CC(O)(C(F)(F)F)C3)cc2)C1)N1CC2(CC(c3nnc(C4CC4)[nH]3)C2)C1 (stereo not shown) [compound 291],9.24
4,O=C(N1CC2(CC(Cc3ccc4[nH]nc(C(F)(F)F)c4c3)C2)C1)N1CC2(CC(c3nc(C4CC4)n[nH]3)C2)C1 [compound 994],10.22
5,O=C(N1CC2(CCC(Cc3nnc(C(F)(F)F)o3)CC2)C1)N1CC2(CC(c3nc(C4CC4)n[nH]3)C2)C1 [compound 779],8.08
6,O=C(N1CC2(CC(c3ccc(C(F)(F)F)cc3)C2)C1)N1CC2(CC(c3nnc(C4CC4)[nH]3)C2)C1 [compound 940],9.24
7,O=C(N1CC(C23CC(Cc4ccc(C(F)(F)F)cc4F)(C2)C3)C1)N1CC2(CC(c3nc(C4(O)CC4)n[nH]3)C2)C1 [compound 438],8.46
8,N=S(=O)(c1ccc(CC2CC3(C2)CN(C(=O)N2CC4(CC(c5nc(C6CC6)n[nH]5)C4)C2)C3)c(F)c1)C(F)(F)F (stereo not shown) [compound 849],10.15
9,"O=C(N1CC2(CC(c3nc(C4CC4)n[nH]3)C2)C1)C12CC(Nc3cnc(C(F)(F)F)cn3)(C1)C2 [Example 473, [6-(3-cyclopropyl-1H-1,2,4-triazol-5-yl)-2-azaspiro[3.3]heptan-2-yl]-[3-[[5-(trifluoromethyl)pyrazin-2-yl]amino]-1-bicyclo[1.1.1]pentanyl]methanone]",7.17
10,CCc1ccc(C(=O)N2CCN(C(=O)N3CC4(CC(c5nnc(C6CC6)[nH]5)C4)C3)CC2)cc1 [compound 869],6.94
11,O=C(N1CC2(CC(Cn3cnc(C4(C(F)(F)F)CC4)n3)C2)C1)N1CC2(CC(c3nc(C4CC4)n[nH]3)C2)C1 [compound 787],8.92
12,O=C(N1CC2(CC(c3nnc(C4CC4)[nH]3)C2)C1)N1CC2(C1)CN(S(=O)(=O)c1ccc(F)c(C(F)(F)F)c1)C2 [compound 102],7.82
13,O=C(N1CC2(CCN(S(=O)(=O)C34CC(C(F)(F)F)(C3)C4)CC2)C1)N1CC2(CC(c3nnc(C4(O)CC4)[nH]3)C2)C1 [compound 238],6.45
14,"O=C(N1CC(c2ccc(N3CCC(O)(C(F)(F)F)C3)nc2)C1)N1CC2(CC(c3nnc(C4CC4)[nH]3)C2)C1 (single isomer, unassigned) [compound 270]",8.31
15,"N=[S@@](=O)(c1ccc(CC2CC3(C2)CN(C(=O)N2CC4(CC(c5nnc(C6CC6)[nH]5)C4)C2)C3)cc1)C(F)(F)F (single isomer, unassigned) [compound 128]",9.80
16,"Cc1ncsc1CN1CCN(C(=O)N2CC3(CC(c4nc(C5CC5)n[nH]4)C3)C2)CC1 [Example 880, [6-(3-cyclopropyl-1H-1,2,4-triazol-5-yl)-2-azaspiro[3.3]heptan-2-yl]-[4-[(4-methylthiazol-5-yl)methyl]piperazino]methanone]",6.08
17,CS(=O)(=O)c1cc(CC2CC3(C2)CN(C(=O)N2CC4(CC(c5ncn[nH]5)C4)C2)C3)ccc1C(F)(F)F [compound 753],5.83
18,O=C(N1CC2(CCC(Oc3cnc(C(F)(F)F)cn3)CC2)C1)N1CC2(CC(c3nnc(C4CC4)[nH]3)C2)C1 [compound 74],9.11
19,CP(C)(=O)c1cc(CC2CC3(C2)CN(C(=O)N2CC4(CC(c5nnc(C6CC6)[nH]5)C4)C2)C3)cc(C(F)(F)F)c1 [compound 884],8.83
20,O=C(N1CC2(CC(c3nnc(C4CC4)[nH]3)C2)C1)N1CC2(CC(C(F)(F)c3ccc(C(F)(F)F)nc3)C2)C1 [compound 826],9.25
21,O=C(N1CC2(CC(NS(=O)(=O)c3cccc(C(F)(F)F)c3)C2)C1)N1CC2(CC(c3nnc(C4CC4)[nH]3)C2)C1 [compound 56],9.13
22,O=C(N1CC2(CC(Oc3cnc(C(F)(F)F)cn3)C2)C1)N1CC2(CC(c3nnc(C4CC4)[nH]3)C2)C1 [compound 75],8.26
23,O=C(N1CC2(CC(Cc3ccc(OC(F)(F)F)nc3)C2)C1)N1CC2(CC(c3nc(C4CC(F)(F)C4)n[nH]3)C2)C1 [compound 566],7.83
24,O=C(N1CC(NCc2ccc(C(F)(F)F)cc2F)C1)N1CC2(CC(c3nnc(C4CC4)[nH]3)C2)C1 [compound 192],7.63

# Continued by rising pIC50, values first:
row,pIC50,SMILES
1,5.88,O=C(N1CC2(CC(c3nc(C4CC4)n[nH]3)C2)C1)N1CC2(CN(Cc3cc[nH]n3)C2)C1 [compound 799]
2,6.59,O=C(N1CC(C23CC(c4cc(C5CC5)n[nH]4)(C2)C3)C1)N1CC2(CC(c3nc(C4CC(F)(F)C4)n[nH]3)C2)C1 [compound 702]
3,6.83,O=C(N1CC2(CC(Cc3cnc(C(F)(F)F)cn3)C2)C1)N1CC2(CC(c3nc(C4COC4)n[nH]3)C2)C1 [compound 761]
4,7.11,COc1cc(Cl)ccc1CN(C)CC1CN(C(=O)N2CC3(CC(c4nnc(C5CC5)[nH]4)C3)C2)C1 [compound 894]
5,7.50,O=C(N1CC2(CC(c3nc(C4CC4)n[nH]3)C2)C1)N1CC2(CN(Cc3cnn(C(F)(F)F)c3)C2)C1 [compound 513]
6,7.69,O=C(N1CC(NCc2cc(C(F)(F)F)ccc2Cl)C1)N1CC2(CC(c3nnc(C4CC4)[nH]3)C2)C1 [compound 188]
7,7.78,O=C(N1CC(c2ccc(Oc3ccccc3Cl)nn2)C1)N1CC2(CC(c3nnc(C4CC4)[nH]3)C2)C1 [compound 378]
8,7.89,N#Cc1ccc(CC2CC3(C2)CN(C(=O)N2CC4(CC(c5nc(C6CC(F)(F)C6)n[nH]5)C4)C2)C3)cc1C(F)(F)F [compound 677]
9,7.97,O=C(N1CC(OCc2cccc(S(=O)(=O)C(F)(F)F)c2)C1)N1CC2(CC(c3nnc(C4CC4)[nH]3)C2)C1 [compound 321]
10,7.97,O=C(N1CC2(CC(Oc3cnn(CC(F)(F)F)c3)C2)C1)N1CC2(CC(c3nc(C4CC4)n[nH]3)C2)C1 [compound 631]
11,8.01,N=S(=O)(c1cccc(CC2CC3(C2)CN(C(=O)N2CC4(CC(c5nc(C6CC(F)(F)C6)n[nH]5)C4)C2)C3)c1)C(F)(F)F (stereo not shown) [compound 668]
12,8.13,O=C(N1CC2(CC(c3nc(C4CC4)n[nH]3)C2)C1)N1CC2(CN(Cc3nc(C4CC4)ns3)C2)C1 [compound 637]
13,8.14,COC(=O)C(C)(C)c1cccc(OC2CN(C(=O)N3CC4(CC(c5nnc(C6CC6)[nH]5)C4)C3)C2)c1 [compound 318]
14,8.18,O=C(N1CC2(CC(Cc3ncc(F)cc3F)C2)C1)N1CC2(CC(c3nc(C(F)(F)F)n[nH]3)C2)C1 [compound 819]
15,8.27,O=C(N1CC2(CC(CNC3(C(F)(F)F)COC3)C2)C1)N1CC2(CC(c3nnc(C4CC4)[nH]3)C2)C1 [compound 354]
16,8.32,"NC(=O)[C@H]1CC(F)(F)CCN1c1ccc(C2CN(C(=O)N3CC4(CC(c5nnc(C6CC6)[nH]5)C4)C3)C2)cc1 [Example 396, (2R)-1-[4-[1-[6-(5-cyclopropyl-4H-1,2,4-triazol-3-yl)-2-azaspiro[3.3]heptane-2-carbonyl]azetidin-3-yl]phenyl]-4,4-difluoro-piperidine-2-carboxamide]"
17,8.33,O=C(N1CC2(CC(c3ccc(C(F)(F)F)nc3)C2)C1)N1CC2(CC(c3nc(C4CC4)n[nH]3)C2)C1 [compound 805]
18,8.54,"Cc1sc(-c2ccc(C3CN(C(=O)N4CC5(CC(c6nnc(C7CC7)[nH]6)C5)C4)C3)cc2)nc1C(C)O (stereo not shown) [Example 840, [6-(5-cyclopropyl-4H-1,2,4-triazol-3-yl)-2-azaspiro[3.3]heptan-2-yl]-[3-[4-[4-(1-hydroxyethyl)-5-methyl-thiazol-2-yl]phenyl]azetidin-1-yl]methanone]"
19,8.62,"NC(=O)[C@H]1CCCN1c1ccc(C2CN(C(=O)N3CC4(CC(c5nnc(C6CC6)[nH]5)C4)C3)C2)cc1 [Example 398, (2R)-1 [4-[1-[6-(5-cyclopropyl-4H-1,2,4-triazol-3-yl)-2-azaspiro[3.3]heptane-2-carbonyl]azetidin-3-yl]phenyl]pyrrolidine-2-carboxamide]"
20,8.95,O=C(N1CC2(CC(Oc3nc(C(F)(F)F)cs3)C2)C1)N1CC2(CC(c3nc(C4CC4)n[nH]3)C2)C1 [compound 423]
21,8.99,O=C(N1CC2(CCN(Cc3ccc(S(=O)(=O)C(F)(F)F)cc3)CC2)C1)N1CC2(CC(c3nnc(C4CC4)[nH]3)C2)C1 [compound 85]
22,9.11,Cc1cc(C(C)(C)C)nn1-c1ccc(C2CN(C(=O)N3CC4(CC(c5nc(C6(O)CC6)n[nH]5)C4)C3)C2)cc1 [compound 820]
23,9.24,COC(=O)C1(c2ccc(C3CN(C(=O)N4CC5(CC(c6nnc(C7CC7)[nH]6)C5)C4)C3)cc2)CC1 [compound 372]
24,9.26,O=C(N1CC2(CC(Cc3cn(CC(F)(F)F)nc3C(F)(F)F)C2)C1)N1CC2(CC(c3nc(C4CC4)n[nH]3)C2)C1 [compound 571]
25,9.37,O=C(N1CC2(CCC(Cc3ccc(C(F)(F)F)nc3)C2)C1)N1CC2(CC(c3nnc(C4CC4)[nH]3)C2)C1 (stereo not shown) [compound 152]
26,9.52,CS(=O)(=O)c1cc(F)cc(CC2CC3(C2)CN(C(=O)N2CC4(CC(c5nnc(C6CC6)[nH]5)C4)C2)C3)c1 [compound 18]
27,10.30,O=C(N1CC2(CC(Cc3ccc(F)cc3F)C2)C1)N1CC2(CC(c3nnc(C4(O)CC4)[nH]3)C2)C1 [compound 36]
28,10.52,NC1(c2nnc(C3CC4(C3)CN(C(=O)N3CC5(CC(Cc6ccc(F)cc6C(F)(F)F)C5)C3)C4)[nH]2)CC1 [Example 636]
